Source: PubChem BioAssay (NCI)
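1) Cells in 96-well plates. 2) Compound, 48 h, 5 concentrations. 3) Linear interpolation between surrounding doses. 4) Unreached endpoint = highest concentration. Abbreviation: GI50, concentration required for 50% inhibition of growth. At the TGI there is no net growth.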

How the values were obtained:
Assay in all cases: inhibition of tumour cell growth, NCI panel, 48 h
786-0 renal = system: 786-0 renal
A498 renal = system: A498 renal
A549 NSCLC = system: A549 NSCLC
ACHN renal = system: ACHN renal
BT-549 breast = system: BT-549 breast
CAKI-1 renal = system: CAKI-1 renal
CCRF-CEM leukemia = system: CCRF-CEM leukemia
COLO 205 colon = system: COLO 205 colon
DU-145 prostate = system: DU-145 prostate
EKVX NSCLC = system: EKVX NSCLC
HCC-2998 colon = system: HCC-2998 colon
HCT-116 colon = system: HCT-116 colon
HCT-15 colon = system: HCT-15 colon
HL-60(TB) leukemia = system: HL-60(TB) leukemia
HOP-62 NSCLC = system: HOP-62 NSCLC
HOP-92 NSCLC = system: HOP-92 NSCLC
HS 578T breast = system: HS 578T breast
HT29 colon = system: HT29 colon
IGROV1 ovarian = system: IGROV1 ovarian
K-562 leukemia = system: K-562 leukemia
KM12 colon = system: KM12 colon
LOX IMVI melanoma = system: LOX IMVI melanoma
M14 melanoma = system: M14 melanoma
MALME-3M melanoma = system: MALME-3M melanoma
MCF7 breast = system: MCF7 breast
MDA-MB-231 breast = system: MDA-MB-231 breast
MDA-MB-435 = system: MDA-MB-435
MDA-MB-468 breast = system: MDA-MB-468 breast
MOLT-4 leukemia = system: MOLT-4 leukemia
NCI-H226 lung = system: NCI-H226 lung
NCI-H23 lung = system: NCI-H23 lung
NCI-H460 lung = system: NCI-H460 lung
NCI-H522 lung = system: NCI-H522 lung
NCI/ADR-RES ovarian = system: NCI/ADR-RES ovarian
OVCAR-3 ovarian = system: OVCAR-3 ovarian
OVCAR-4 ovarian = system: OVCAR-4 ovarian
OVCAR-5 ovarian = system: OVCAR-5 ovarian
OVCAR-8 ovarian = system: OVCAR-8 ovarian
PC-3 prostate = system: PC-3 prostate
RPMI-8226 leukemia = system: RPMI-8226 leukemia
RXF 393 renal = system: RXF 393 renal
SF-268 CNS = system: SF-268 CNS
SF-295 CNS = system: SF-295 CNS
SF-539 CNS = system: SF-539 CNS
SK-MEL-2 melanoma = system: SK-MEL-2 melanoma
SK-MEL-28 melanoma = system: SK-MEL-28 melanoma
SK-MEL-5 melanoma = system: SK-MEL-5 melanoma
SK-OV-3 ovarian = system: SK-OV-3 ovarian
SN12C renal = system: SN12C renal
SNB-19 CNS = system: SNB-19 CNS
SNB-75 CNS = system: SNB-75 CNS
SR leukemia = system: SR leukemia
SW-620 colon = system: SW-620 colon
T-47D breast = system: T-47D breast
TK-10 renal = system: TK-10 renal
U251 CNS = system: U251 CNS
UACC-257 melanoma = system: UACC-257 melanoma
UACC-62 melanoma = system: UACC-62 melanoma
UO-31 renal = system: UO-31 renal

Work on `CSc1nc(-c2cccc(C)c2)c2cc(-c3ccccc3)n(C)c2n1` yielded a GI50 (786-0 renal) of 14.5 µM, a TGI (786-0 renal) of 47.8 µM and a GI50 (A498 renal) of 27 µM. For the same compound, the TGI (A498 renal) was 94.9 µM, the GI50 (A549 NSCLC) was 7.01 µM and the TGI (A549 NSCLC) was greater than 100 µM. The GI50 (ACHN renal) was 12.9 µM, the TGI (ACHN renal) was 75.1 µM and the GI50 (BT-549 breast) was 7.11 µM. It also gave a TGI (BT-549 breast) of 33.5 µM, a GI50 (CAKI-1 renal) of 5.08 µM and a TGI (CAKI-1 renal) greater than 100 µM. The GI50 (CCRF-CEM leukemia) was 4 µM, the TGI (CCRF-CEM leukemia) was 36.1 µM and the GI50 (COLO 205 colon) was 7.28 µM. The TGI (COLO 205 colon) was 26.9 µM, the GI50 (DU-145 prostate) was 18.1 µM and the TGI (DU-145 prostate) was greater than 100 µM. For the same compound, the GI50 (EKVX NSCLC) was 4.88 µM, the TGI (EKVX NSCLC) was 39.1 µM and the GI50 (HCC-2998 colon) was 13.9 µM. The TGI (HCC-2998 colon) was 60.8 µM, the GI50 (HCT-116 colon) was 4.17 µM and the TGI (HCT-116 colon) was 21.7 µM. It also gave a GI50 (HCT-15 colon) of 4.9 µM, a TGI (HCT-15 colon) of 24.8 µM and a GI50 (HL-60(TB) leukemia) of 3.54 µM. The TGI (HL-60(TB) leukemia) was 35.4 µM, the GI50 (HOP-62 NSCLC) was 8.77 µM and the TGI (HOP-62 NSCLC) was 48.9 µM. The GI50 (HOP-92 NSCLC) was 3.92 µM, the TGI (HOP-92 NSCLC) was 30.7 µM and the GI50 (HS 578T breast) was 7 µM. For the same compound, the TGI (HS 578T breast) was 78.1 µM, the GI50 (HT29 colon) was 3.98 µM and the TGI (HT29 colon) was 25.4 µM. For the same compound, the GI50 (IGROV1 ovarian) was 6.43 µM, the TGI (IGROV1 ovarian) was greater than 100 µM and the GI50 (K-562 leukemia) was 3.13 µM. The TGI (K-562 leukemia) was greater than 100 µM, the GI50 (KM12 colon) was 5.41 µM and the TGI (KM12 colon) was 64.7 µM. For the same compound, the GI50 (LOX IMVI melanoma) was 5.44 µM, the TGI (LOX IMVI melanoma) was 19.4 µM and the GI50 (M14 melanoma) was 4.56 µM. It also gave a TGI (M14 melanoma) of 51.4 µM, a GI50 (MALME-3M melanoma) of 9.16 µM and a TGI (MALME-3M melanoma) of 38.2 µM. It also gave a GI50 (MCF7 breast) of 5.88 µM, a TGI (MCF7 breast) of 41.8 µM and a GI50 (MDA-MB-231 breast) of 7.42 µM. It also gave a TGI (MDA-MB-231 breast) of 30.2 µM, a GI50 (MDA-MB-435) of 2.86 µM and a TGI (MDA-MB-435) of 8.45 µM. It also gave a GI50 (MDA-MB-468 breast) of 3.08 µM, a TGI (MDA-MB-468 breast) of 15.6 µM and a GI50 (MOLT-4 leukemia) of 4.47 µM. For the same compound, the TGI (MOLT-4 leukemia) was 37.7 µM, the GI50 (NCI-H226 lung) was 12.8 µM and the TGI (NCI-H226 lung) was 50 µM. The GI50 (NCI-H23 lung) was 12.2 µM, the TGI (NCI-H23 lung) was 68 µM and the GI50 (NCI-H460 lung) was 3.98 µM. The TGI (NCI-H460 lung) was 19.1 µM, the GI50 (NCI-H522 lung) was 3.41 µM and the TGI (NCI-H522 lung) was 17.2 µM. It also gave a GI50 (NCI/ADR-RES ovarian) of 3.58 µM, a TGI (NCI/ADR-RES ovarian) of 30.9 µM and a GI50 (OVCAR-3 ovarian) of 4.31 µM. For the same compound, the TGI (OVCAR-3 ovarian) was 30.7 µM, the GI50 (OVCAR-4 ovarian) was 20.5 µM and the TGI (OVCAR-4 ovarian) was greater than 100 µM. For the same compound, the GI50 (OVCAR-5 ovarian) was 18.6 µM, the TGI (OVCAR-5 ovarian) was greater than 100 µM and the GI50 (OVCAR-8 ovarian) was 16.3 µM. For the same compound, the TGI (OVCAR-8 ovarian) was greater than 100 µM, the GI50 (PC-3 prostate) was 7.9 µM and the TGI (PC-3 prostate) was greater than 100 µM. The GI50 (RPMI-8226 leukemia) was 4.82 µM, the TGI (RPMI-8226 leukemia) was 37.8 µM and the GI50 (RXF 393 renal) was 7.91 µM. For the same compound, the TGI (RXF 393 renal) was 47 µM, the GI50 (SF-268 CNS) was 11.2 µM and the TGI (SF-268 CNS) was 51.1 µM. It also gave a GI50 (SF-295 CNS) of 5.06 µM, a TGI (SF-295 CNS) of 18.2 µM and a GI50 (SF-539 CNS) of 6.35 µM. For the same compound, the TGI (SF-539 CNS) was 21.8 µM, the GI50 (SK-MEL-2 melanoma) was 3.62 µM and the TGI (SK-MEL-2 melanoma) was 17.5 µM. It also gave a GI50 (SK-MEL-28 melanoma) of 12.2 µM, a TGI (SK-MEL-28 melanoma) of 97.7 µM and a GI50 (SK-MEL-5 melanoma) of 3.59 µM. For the same compound, the TGI (SK-MEL-5 melanoma) was 12.8 µM, the GI50 (SK-OV-3 ovarian) was 11.2 µM and the TGI (SK-OV-3 ovarian) was 52.1 µM. For the same compound, the GI50 (SN12C renal) was 10.7 µM, the TGI (SN12C renal) was 44.7 µM and the GI50 (SNB-19 CNS) was 14.6 µM. For the same compound, the TGI (SNB-19 CNS) was 93.6 µM, the GI50 (SNB-75 CNS) was 3.17 µM and the TGI (SNB-75 CNS) was 27.4 µM. The GI50 (SR leukemia) was 3.17 µM, the TGI (SR leukemia) was greater than 100 µM and the GI50 (SW-620 colon) was 4.87 µM. It also gave a TGI (SW-620 colon) greater than 100 µM, a GI50 (T-47D breast) of 4.59 µM and a TGI (T-47D breast) of 41.3 µM. It also gave a GI50 (TK-10 renal) of 28.8 µM, a TGI (TK-10 renal) of 91.9 µM and a GI50 (U251 CNS) of 4.65 µM. The TGI (U251 CNS) was 33.8 µM, the GI50 (UACC-257 melanoma) was 16.7 µM and the TGI (UACC-257 melanoma) was 50.4 µM. For the same compound, the GI50 (UACC-62 melanoma) was 3.99 µM, the TGI (UACC-62 melanoma) was 17.9 µM and the GI50 (UO-31 renal) was 6.78 µM. It also gave a TGI (UO-31 renal) of 67 µM.
